Test results reported in patent US10144732B2 (BIOGEN MA INC., priority 2014, dated 2018).
Where a name gives a salt, the structure may show the parent alone.

Each compound was assayed against T1, Human ATX protein (Homo sapiens, UniProt Q13822) (assay: ATX biochemical assay (FRET, FS-3 substrate)). Settings: FRET assay, FS-3 2 μM, ATX 1.0 μg/mL, 30 minutes preincubation, 2 hours reaction at room temperature; read-out: IC50.
T1 construct: made in house
In short: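 FRET read-out: cleavage of FS-3 (2 μM final) unquenches fluorescein, measured at 485/538 nm after 2 h at room temperature. Before substrate addition, in-house-expressed human autotaxin (1.0 μg/mL) sat with compound for 30 min in pH 7.4 Tris/NaCl/KCl/CaCl2/MgCl2 buffer containing fatty acid free-BSA at 1 mg/mL.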

Row | SMILES | IC50 [nM]
1 | O=C(O)C1CCN(CC(=O)N2CCc3c(C(F)(F)F)nn(Cc4ccc(Cl)cc4F)c3C2)CC1 [Example 13-2, 1-(2-(1-(4-Chloro-2-fluorobenzyl)-3-(trifluoromethyl)-4,5-dihydro-1H-pyrazolo[3,4-c]pyridin-6(7H)-yl)-2-oxoethyl)piperidine-4-carboxylic acid] | ≤ 100
2 | O=C(O)C1CCCN(CC(=O)N2CCc3c(C(F)(F)F)nn(Cc4ccc(Cl)cc4F)c3C2)C1 (centres unmarked) [Example 13-3, 1-(2-(1-(4-Chloro-2-fluorobenzyl)-3-(trifluoromethyl)-4,5-dihydro-1H-pyrazolo[3,4-c]pyridin-6(7H)-yl)-2-oxoethyl)piperidine-3-carboxylic acid] | ≤ 100
3 | O=C(O)C1CCCN(CC(=O)N2CCc3c(C(F)(F)F)nn(Cc4ccc(F)cc4)c3C2)C1 (centres unmarked) [Example 13-7, 1-(2-(1-(4-Fluorobenzyl)-3-(trifluoromethyl)-4,5-dihydro-1H-pyrazolo[3,4-c]pyridin-6(7H)-yl)-2-oxoethyl)piperidine-3-carboxylic acid] | ≤ 100
4 | CC(C(=O)N1CCc2c(C(F)(F)F)nn(Cc3ccc(Cl)cc3F)c2C1)N1CCC(C(=O)O)CC1 (centres unmarked) [Example 13-8, 1-(1-(1-(4-Chloro-2-fluorobenzyl)-3-(trifluoromethyl)-4,5-dihydro-1H-pyrazolo[3,4-c]pyridin-6(7H)-yl)-1-oxopropan-2-yl)piperidine-4-carboxylic acid] | ≤ 100
5 | O=C(O)C1CC2CN(CC(=O)N3CCc4c(C(F)(F)F)nn(Cc5ccc(Cl)cc5F)c4C3)CC2C1 (centres unmarked) [Example 13-9, 2-(2-(1-(4-Chloro-2-fluorobenzyl)-3-(trifluoromethyl)-4,5-dihydro-1H-pyrazolo[3,4-c]pyridin-6(7H)-yl)-2-oxoethyl)octahydrocyclopenta[c]pyrrole-5-carboxylic acid TFA salt] | ≤ 100
6 | O=C(O)C1CC2CN(CC(=O)N3CCc4c(C(F)(F)F)nn(Cc5ccc(F)cc5)c4C3)CC2C1 (centres unmarked) [Example 13-10, 2-(2-(1-(4-Fluorobenzyl)-3-(trifluoromethyl)-4,5-dihydro-1H-pyrazolo[3,4-c]pyridin-6(7H)-yl)-2-oxoethyl)octahydrocyclopenta[c]pyrrole-5-carboxylic acid TFA salt] | ≤ 100
7 | CC1(C)C(NCC(=O)N2CCc3c(C(F)(F)F)nn(Cc4ccc(Cl)cc4F)c3C2)CC1C(=O)O (centres unmarked) [Example 13-11, 3-((2-(1-(4-Chloro-2-fluorobenzyl)-3-(trifluoromethyl)-4,5-dihydro-1H-pyrazolo[3,4-c]pyridin-6(7H)-yl)-2-oxoethyl)amino)-2,2-dimethylcyclobutanecarboxylic acid TFA salt] | ≤ 100
8 | O=C(O)C1CCN(CC(=O)N2CCc3c(C(F)(F)F)nn(Cc4ccc(F)cc4)c3C2)C1 (centres unmarked) [Example 13-12, 1-(2-(1-(4-Fluorobenzyl)-3-(trifluoromethyl)-4,5-dihydro-1H-pyrazolo[3,4-c]pyridin-6(7H)-yl)-2-oxoethyl)pyrrolidine-3-carboxylic acid] | ≤ 100
9 | O=C(O)CC1CCN(CC(=O)N2CCc3c(C(F)(F)F)nn(Cc4ccc(Cl)cc4F)c3C2)CC1 [Example 13-13, 2-(1-(2-(1-(4-Chloro-2-fluorobenzyl)-3-(trifluoromethyl)-4,5-dihydro-1H-pyrazolo[3,4-c]pyridin-6(7H)-yl)-2-oxoethyl)piperidin-4-yl)acetic acid TFA salt] | ≤ 100
10 | CC1(C)C(NCC(=O)N2CCc3c(C(F)(F)F)nn(Cc4ccc(F)cc4)c3C2)CC1C(=O)O (centres unmarked) [Example 13-14, 3-((2-(1-(4-Fluorobenzyl)-3-(trifluoromethyl)-4,5-dihydro-1H-pyrazolo[3,4-c]pyridin-6(7H)-yl)-2-oxoethyl)amino)-2,2-dimethylcyclobutanecarboxylic acid TFA salt] | ≤ 100
11 | O=C(O)CC1CCN(CC(=O)N2CCc3c(C(F)(F)F)nn(Cc4ccc(F)cc4)c3C2)CC1 [Example 13-15, 2-(1-(2-(1-(4-Fluorobenzyl)-3-(trifluoromethyl)-4,5-dihydro-1H-pyrazolo[3,4-c]pyridin-6(7H)-yl)-2-oxoethyl)piperidin-4-yl)acetic acid TFA salt] | ≤ 100
12 | O=C(O)CCNCC(=O)N1CCc2c(C(F)(F)F)nn(Cc3ccc(F)cc3)c2C1 [Example 13-16, 3-(2-(1-(4-Fluorobenzyl)-3-(trifluoromethyl)-4,5-dihydro-1H-pyrazolo[3,4-c]pyridin-6(7H)-yl)-2-oxoethylamino)propanoic acid TFA salt] | ≤ 100
13 | O=C(O)C1CN(CC(=O)N2CCc3c(C(F)(F)F)nn(Cc4ccc(Cl)cc4F)c3C2)C1 [Example 13-17, 1-(2-(1-(4-Chloro-2-fluorobenzyl)-3-(trifluoromethyl)-4,5-dihydro-1H-pyrazolo[3,4-c]pyridin-6(7H)-yl)-2-oxoethyl)azetidine-3-carboxylic acid TFA salt] | ≤ 100
14 | O=C(O)C1CN(CC(=O)N2CCc3c(C(F)(F)F)nn(Cc4ccc(F)cc4)c3C2)C1 [Example 13-18, 1-(2-(1-(4-Fluorobenzyl)-3-(trifluoromethyl)-4,5-dihydro-1H-pyrazolo[3,4-c]pyridin-6(7H)-yl)-2-oxoethyl)azetidine-3-carboxylic acid TFA salt] | ≤ 100
15 | O=C(O)C1CCCN(CC(=O)N2CCc3c(C(F)(F)F)nn(Cc4ccc(F)cc4)c3C2)CC1 (centres unmarked) [Example 13-19, 1-(2-(1-(4-Fluorobenzyl)-3-(trifluoromethyl)-4,5-dihydro-1H-pyrazolo[3,4-c]pyridin-6(7H)-yl)-2-oxoethyl)azepane-4-carboxylic acid TFA salt] | ≤ 100
16 | O=C(O)C1CCCN(CC(=O)N2CCc3c(C(F)(F)F)nn(Cc4ccc(Cl)cc4F)c3C2)CC1 (centres unmarked) [Example 13-20, 1-(2-(1-(4-Chloro-2-fluorobenzyl)-3-(trifluoromethyl)-4,5-dihydro-1H-pyrazolo[3,4-c]pyridin-6(7H)-yl)-2-oxoethyl)azepane-4-carboxylic acid TFA salt] | ≤ 100
17 | O=C(O)C1CC2(C1)CN(CC(=O)N1CCc3c(C(F)(F)F)nn(Cc4ccc(Cl)cc4F)c3C1)C2 [Example 13-21, 2-(2-(1-(4-Chloro-2-fluorobenzyl)-3-(trifluoromethyl)-4,5-dihydro-1H-pyrazolo[3,4-c]pyridin-6(7H)-yl)-2-oxoethyl)-2-azaspiro[3.3]heptane-6-carboxylic acid TFA salt] | ≤ 100
18 | O=C(O)CC1CN(CC(=O)N2CCc3c(C(F)(F)F)nn(Cc4ccc(Cl)cc4F)c3C2)C1 [Example 13-22, 2-(1-(2-(1-(4-Chloro-2-fluorobenzyl)-3-(trifluoromethyl)-4,5-dihydro-1H-pyrazolo[3,4-c]pyridin-6(7H)-yl)-2-oxoethyl)azetidin-3-yl)acetic acid TFA salt] | ≤ 100
19 | O=C(O)CC1CN(CC(=O)N2CCc3c(C(F)(F)F)nn(Cc4ccc(F)cc4)c3C2)C1 [Example 13-23, 2-(1-(2-(1-(4-Fluorobenzyl)-3-(trifluoromethyl)-4,5-dihydro-1H-pyrazolo[3,4-c]pyridin-6(7H)-yl)-2-oxoethyl)azetidin-3-yl)acetic acid TFA salt] | ≤ 100
20 | O=C(O)CC1CCN(CC(=O)N2CCc3c(C(F)(F)F)nn(Cc4ccc(Cl)cc4F)c3C2)C1 (centres unmarked) [Example 13-24, 2-(1-(2-(1-(4-Chloro-2-fluorobenzyl)-3-(trifluoromethyl)-4,5-dihydro-1H-pyrazolo[3,4-c]pyridin-6(7H)-yl)-2-oxoethyl)pyrrolidin-3-yl)acetic acid TFA salt] | ≤ 100
21 | O=C(O)CC1CCN(CC(=O)N2CCc3c(C(F)(F)F)nn(Cc4ccc(F)cc4)c3C2)C1 (centres unmarked) [Example 13-25, 2-(1-(2-(1-(4-Fluorobenzyl)-3-(trifluoromethyl)-4,5-dihydro-1H-pyrazolo[3,4-c]pyridin-6(7H)-yl)-2-oxoethyl)pyrrolidin-3-yl)acetic acid TFA salt] | ≤ 100

Same assay, conditions: IC50, FRET assay, FS-3 2 μM, ATX 1.0 μg/mL, 30 minutes preincubation, 2 hours reaction at room temperature

Row | SMILES | IC50 [nM]
22 | O=C(O)C1CC2CCC(C1)N2CC(=O)N1CCc2c(C(F)(F)F)nn(Cc3ccc(Cl)cc3F)c2C1 (centres unmarked) [Example 13-4, 8-(2-(1-(4-Chloro-2-fluorobenzyl)-3-(trifluoromethyl)-4,5-dihydro-1H-pyrazolo[3,4-c]pyridin-6(7H)-yl)-2-oxoethyl)-8-azabicyclo[3.2.1]octane-3-carboxylic acid] | ≤ 100
23 | O=C(O)C1CC2CCC(C1)N2CC(=O)N1CCc2c(C(F)(F)F)nn(Cc3ccc(F)cc3)c2C1 (centres unmarked) [Example 13-5, 8-(2-(1-(4-Fluorobenzyl)-3-(trifluoromethyl)-4,5-dihydro-1H-pyrazolo[3,4-c]pyridin-6(7H)-yl)-2-oxoethyl)-8-azabicyclo[3.2.1]octane-3-carboxylic acid] | ≤ 100
24 | O=C(O)C1CC2CCCC(C1)N2CC(=O)N1CCc2c(C(F)(F)F)nn(Cc3ccc(F)cc3)c2C1 (centres unmarked) [Example 13-6, 9-(2-(1-(4-Fluorobenzyl)-3-(trifluoromethyl)-4,5-dihydro-1H-pyrazolo[3,4-c]pyridin-6(7H)-yl)-2-oxoethyl)-9-azabicyclo[3.3.3.1]nonane-3-carboxylic acid] | ≤ 100
25 | O=C(O)C1CC2COCC(C1)N2CC(=O)N1CCc2c(C(F)(F)F)nn(Cc3ccc(F)cc3)c2C1 (centres unmarked) [Example 13-26, 9-(2-(1-(4-Fluorobenzyl)-3-(trifluoromethyl)-4,5-dihydro-1H-pyrazolo[3,4-c]pyridin-6(7H)-yl)-2-oxoethyl)-3-oxa-9-azabicyclo[3.3.1]nonane-7-carboxylic acid TFA salt] | ≤ 100
26 | O=C(O)C1CC2COCC(C1)N2CC(=O)N1CCc2c(C(F)(F)F)nn(Cc3ccc(Cl)cc3F)c2C1 (centres unmarked) [Example 13-27, 9-(2-(1-(4-Chloro-2-fluorobenzyl)-3-(trifluoromethyl)-4,5-dihydro-1H-pyrazolo[3,4-c]pyridin-6(7H)-yl)-2-oxoethyl)-3-oxa-9-azabicyclo[3.3.1]nonane-7-carboxylic acid TFA salt] | ≤ 100
